These results are taken from the NIST ThermoML archive (doi:10.1016/j.fluid.2005.11.015).

Structures are written as SMILES. ± gives the expanded uncertainty stated by the source.

For the data set the following is noted: Crystal; visual observation.

As to `CCCCn1cc[n+](C)c1.[Cl-]` [1-butyl-3-methylimidazolium chloride], the Normal melting temperature was determined as 67.0 ± 2 °C.
